Test results taken from patent publication US20210161997A1, “TREATING DISEASES VIA TARGETED MODULATION OF GENE SIGNALING NETWORKS” (Camp4 Therapeutics Corporation, priority 2018, published 2021).
Structures can show the parent of a compound that is named as a salt.

How the values were obtained:
UGT1A1 = assay: RNA-seq of UGT1A1 expression in compound-treated primary human hepatocytes; assay type: cell-based
Description: (§1) Human hepatocytes were obtained from two donors from Massachusetts General Hospital, namely MGH54 and MGH63, and one donor from Lonza, namely HUM4111B. Cryopreserved hepatocytes were cultured in plating media for 16 hours, transferred to maintenance media for 4 hours. Cultured on serum-free media for 2 hours, then a compound was added. The hepatocytes were maintained on the serum-free media for 16 hours prior to gene expression analysis. Primary human hepatocytes were stored in the vapor phase of a liquid nitrogen freezer (about −130° C.).
(§2) Human hepatocytes cultured as described above were plated in 24-well format, adding 375,000 cells per well in a volume of 500 ul plating medium. Four hours before treatment, cells were washed with PBS and the medium was changed to either: fresh maintenance medium (complete) or modified maintenance medium.
(§3) Compound stocks were prepared at 1000× final concentration and added in a 2-step dilution to the medium to reduce risk of a compound precipitating out of solution when added to the cells, and to ensure reasonable pipetting volumes. One at a time, each compound was first diluted 10-fold in warm (about 37° C.) modified maintenance medium (initial dilution=ID), mixed by vortexing, and the ID was diluted 100-fold into the cell culture (e.g. 5.1 ul into 1 well of a 24-well plate containing 0.5 mL medium). The plate was mixed by carefully swirling and after all wells were treated and returned to the incubator overnight. If desired, separate plates/wells were treated with vehicle-only controls and/or positive controls. If using multi-well plates, controls were included on each plate. After about 18 hours, cells were harvested for further analysis, e.g., ChIP-seq, RNA-seq, ATAC-seq, etc.
(§4) This protocol is a modified version of the following protocols: MagMAX mirVana Total RNA Isolation Kit User Guide (Applied Biosystems #MAN0011131 Rev B.0), NEBNext Poly(A) mRNA Magnetic Isolation Module (E7490), and NEBNext Ultra Directional RNA Library Prep Kit for Illumina (E7420) (New England Biosystems #E74901).
(§5) The MagMAX mirVana kit instructions (the section titled “Isolate RNA from cells” on pages 14-17) were used for isolation of total RNA from cells in culture. Two hundred μl of Lysis Binding Mix was used per well of the multiwell plate containing adherent cells (usually a 24-well plate).
(§6) For mRNA isolation and library prep, the NEBNext Poly(A) mRNA Magnetic Isolation Module and Directional Prep kit was used. RNA isolated from cells above was quantified, and prepared in […] of each sample in 50 μl of nuclease-free water. This protocol may be run in microfuge tubes or in a 96-well plate.
Standard QC were applied (read integrity, mapping statistics, library complexity, fragment bias) to remove unsatisfactory samples. […] Log 2 fold change and significance values were computed using PME count data (with replicates explicitly modeled versus pan-experiment controls), median ratio normalized, using maximum likelihood estimation rather than maximum a posteriori, and disabling the use of Cook's distance cutoff when determining acceptable adjusted p-values. […] RNA-seq signals were also normalized by read depth and visualized using the UCSC browser.
To identify small molecules that modulate target gene expression, primary human hepatocytes were prepared as a monoculture, and at least one small molecule compound was applied to the cells.
RNA-seq was performed to determine the effects of the compounds on the expression of the target genes in hepatocytes. Fold change was calculated by dividing the level of expression in the cell system that had been perturbed by the level of expression in an unperturbed system. Changes in expression having a p-value ≤0.05 were considered significant.
Significance was defined as an FPKM ≥1, a log 2(fold change) ≥0.5, and a q-value of ≤0.05 for all targets except for CPOX.

ANGPTL3 = assay: RNA-seq of ANGPTL3 expression in compound-treated primary human hepatocytes; assay type: cell-based; conditions: additional compounds (Table 13), linear fold change
Description: as §1, §2, §3, §4, §5, §6
All pass filter reads from each sample were mapped against the human genome (assembly GRCh38/GCA_000001405.15 “no alt” analysis set merged with hs38d1/GCA_000786075.2) using two pass mapping via STAR version 2.5.3a (alignment parameters alignIntronMin=20; alignIntronMax=1000000; outFilterMismatchNmax=999; outFilterMismatchNoverLmax=0.05; outFilterType=BySJout; outFilterMultimapNmax=20; alignSJoverhangMin=8; alignSJDBoverhangMin=1; alignMatesGapMax=1000000) (Dobin et al., Bioinformatics (2012) 29(1):15-21). Genomic alignments were converted to transcriptome alignments based on reference transcript annotations from the Human GENCODE Gene Set release 24 (Harrow et al., Genome Res. (2012) 22(9): 1760-1774). Using unique and multimapped transcriptomic alignments, gene-level abundance estimates were computed using RSEM version 1.3.0 (Li and Dewey, BMC Bioinformatics (2011) 12:323) in a strand-aware manner, and including confidence interval sampling calculations, to arrive at posterior mean estimates (PME) of abundances (counts and normalized FPKM—fragments per kilobase of exon per million mapped fragments) from the underlying Bayesian model. Standard QC were applied (read integrity, mapping statistics, library complexity, fragment bias) to remove unsatisfactory samples.

## CNC(=O)c1ccc(N2C(=S)N(c3cnc(C#N)c(C(F)(F)F)c3)C(=O)C23CCC3)cc1F [ARN-509]
UGT1A1
  UGT1A1 Fold Change (Log2): 1.16 Log2

## Cc1cc(Nc2nc(N[C@@H](C)c3ncc(F)cn3)ncc2Cl)[nH]n1 [AZD1480]
UGT1A1
  UGT1A1 Fold Change (Log2): 0.93 Log2

## C[C@@H]1COCCN1c1cc(C2([S@](C)(=N)=O)CC2)nc(-c2cc[nH]c3nccc2-3)n1 [AZD6738]
UGT1A1
  UGT1A1 Fold Change (Log2): 1.03 Log2

## O=C1Nc2cc(Br)ccc2/C1=C1/Nc2ccccc2/C1=N\O [BIO]
UGT1A1
  UGT1A1 Fold Change (Log2): 0.62 Log2

## Cc1ccc(-n2nc(C(C)(C)C)cc2NC(=O)Nc2ccc(OCCN3CCOCC3)c3ccccc23)cc1 [BIRB 796]
UGT1A1
  UGT1A1 Fold Change (Log2): 1.04 Log2

## C[C@@]1(C(=O)Nc2ccc(F)nc2)CCCN1c1nc(Nc2cc(C3CC3)n[nH]2)c2cccn2n1 [BMS-754807]
UGT1A1
  UGT1A1 Fold Change (Log2): 1.33 Log2

## C=C(c1ccc(C(=O)O)cc1)c1cc2c(cc1C)C(C)(C)CCC2(C)C [Bexarotene]
UGT1A1
  UGT1A1 Fold Change (Log2): 1.29 Log2

## C[C@H]1COC2=C1C(=O)C(=O)c1c2ccc2c1CCCC2(C)C [Cryptotanshinone]
UGT1A1
  UGT1A1 Fold Change (Log2): 0.93 Log2

## Cc1nc(Nc2ncc(C(=O)Nc3c(C)cccc3Cl)s2)cc(N2CCN(CCO)CC2)n1 [Dasatinib]
UGT1A1
  UGT1A1 Fold Change (Log2): 0.67 Log2

## CC[C@@](C)(Nc1ccnc(-c2c[nH]c3ncccc23)n1)C(=O)NCC(F)(F)F [Decernotinib]
UGT1A1
  UGT1A1 Fold Change (Log2): 0.58 Log2

## c1cc(-c2cnn3cc(-c4ccc(OCCN5CCCCC5)cc4)cnc23)ccn1 [Dorsomorphin]
UGT1A1
  UGT1A1 Fold Change (Log2): 0.57 Log2

## C=C1/C(=C\C=C2/CCC[C@]3(C)[C@@H]([C@H](C)/C=C/C=C/C(O)(CC)CC)CC[C@@H]23)C[C@@H](O)C[C@@H]1O [EB1089]
UGT1A1
  UGT1A1 Fold Change (Log2): 0.88 Log2

## Cc1cc(C)c2c(c1)[C@@H](N(Cc1cc(C(F)(F)F)cc(C(F)(F)F)c1)c1nnn(C)n1)CCCN2C[C@H]1CC[C@H](C(=O)O)CC1 [Evacetrapib]
UGT1A1
  UGT1A1 Fold Change (Log2): 0.78 Log2

## CCn1c(=O)c(-c2ccc(-c3cncs3)cc2Cl)cc2cnc(Nc3ccc(N4CCN(C)CC4)cc3)nc21 [FRAX597]
UGT1A1
  UGT1A1 Fold Change (Log2): 0.61 Log2

## OCCn1cc(-c2ccc3c(c2)CC/C3=N\O)c(-c2ccncc2)n1 [GDC-0879]
UGT1A1
  UGT1A1 Fold Change (Log2): 0.55 Log2

## CC(C)c1onc(-c2c(Cl)cccc2Cl)c1COc1ccc(/C=C/c2cccc(C(=O)O)c2)c(Cl)c1 [GW4064]
UGT1A1
  UGT1A1 Fold Change (Log2): 0.92 Log2

## CCC1=C(C)CN(C(=O)NCCc2ccc(S(=O)(=O)NC(=O)N[C@H]3CC[C@H](C)CC3)cc2)C1=O [Glimepiride]
UGT1A1
  UGT1A1 Fold Change (Log2): 0.96 Log2

## Cc1ccc2nc(NC(=O)CSc3nc4c(c(=O)n3-c3ccccc3)SCC4)sc2c1 [IWP-2]
UGT1A1
  UGT1A1 Fold Change (Log2): 0.64 Log2

## Cn1cc(-c2ccc3nnc(C(F)(F)c4ccc5ncccc5c4)n3n2)cn1 [JNJ-38877605]
UGT1A1
  UGT1A1 Fold Change (Log2): 1.09 Log2

## O=C(O)c1ccccc1C(=O)Nc1ccc(-c2ccccc2)cc1 [Kartogenin]
UGT1A1
  UGT1A1 Fold Change (Log2): 2.24 Log2

## CC(=O)c1cccc(-c2cccc(-c3ccn(CCN4CCOCC4)n3)c2)c1 [LRH-1 antagonist]
UGT1A1
  UGT1A1 Fold Change (Log2): 0.91 Log2

## Cn1cc(-c2ccc(F)c(C(F)(F)F)c2)nc1C1CCN(c2ncnc3[nH]ncc23)CC1 [LY2584702]
UGT1A1
  UGT1A1 Fold Change (Log2): 0.76 Log2

## COc1cc(N)c(Cl)cc1C(=O)NC1CCNCC1OC (stereo not shown) [NORCISAPRIDE HYDROCHLORIDE]
ANGPTL3
  ANGPTL3-LINEAR FOLD CHANGE: 0.3763

## Cc1ccc(C(=O)OCc2ccc([C@@H](CN)C(=O)Nc3ccc4cnccc4c3)cc2)c(C)c1 [Netarsudil]
UGT1A1
  UGT1A1 Fold Change (Log2): 0.85 Log2

## C=CC(=O)Nc1cccc(Oc2nc(Nc3ccc(N4CCN(C)CC4)cc3)nc3ccsc23)c1 [Olmutinib (HM61713, BI 1482694), Olmutinib]
ANGPTL3
  ANGPTL3-LINEAR FOLD CHANGE: 0.3057

## CNC(=O)c1ccc(C)c(-n2c(C)cc(OCc3ccc(F)cc3F)c(Br)c2=O)c1 [PH-797804]
ANGPTL3
  ANGPTL3-LINEAR FOLD CHANGE: 0.2736

## NCCC(O)(P(=O)(O)O)P(=O)(O)O [Pamidronate]
ANGPTL3
  ANGPTL3-LINEAR FOLD CHANGE: 0.1528

## N=C(N)c1ccc(OCCCCCOc2ccc(C(=N)N)cc2)cc1 [Pentamidine isethionate]
ANGPTL3
  ANGPTL3-LINEAR FOLD CHANGE: 0.1321

## CC(=O)c1ccc2c(c1)N(CCCN1CCC(CCO)CC1)c1ccccc1S2 [Piperacetazine]
ANGPTL3
  ANGPTL3-LINEAR FOLD CHANGE: 0.4033

## [H]/N=C(\N/C(=N/[H])Nc1ccc(Cl)cc1)NC(C)C [Proguanil]
ANGPTL3
  ANGPTL3-LINEAR FOLD CHANGE: 0.3536

## CCC[C@@H]1CC2=CC(=O)CC[C@]2(C)[C@H]2CC[C@@]3(C)[C@@H](CC[C@@]3(O)CCC(=O)[O-])[C@H]12.[K+] [RU 28318]
ANGPTL3
  ANGPTL3-LINEAR FOLD CHANGE: 0.4005

## Cc1nc2n(c(=O)c1CCN1CCC(c3noc4cc(F)ccc34)CC1)CCCC2 [Risperidone]
ANGPTL3
  ANGPTL3-LINEAR FOLD CHANGE: 0.3231

## C/C=C1\NC(=O)[C@H]2CSSCC/C=C/[C@H](CC(=O)N[C@H](C(C)C)C(=O)N2)OC(=O)[C@H](C(C)C)NC1=O [Romidepsin (FK228, Depsipeptide), Romidepsin]
ANGPTL3
  ANGPTL3-LINEAR FOLD CHANGE: 0.1349

## C[C@@H]1CN(Cc2ccc(F)cc2)[C@@H](C)CN1C(=O)c1cc2c(C(=O)C(=O)N(C)C)cn(C)c2cc1Cl [SCIO-469]
ANGPTL3
  ANGPTL3-LINEAR FOLD CHANGE: 0.3711

## Cc1cc(C)c(/C=C2\C(=O)Nc3ccccc32)[nH]1 [Semaxinib, Semaxanib]
ANGPTL3
  ANGPTL3-LINEAR FOLD CHANGE: 0.2449

## CCC(C)(C)C(=O)O[C@H]1C[C@@H](C)C=C2C=C[C@H](C)[C@H](CC[C@@H]3C[C@@H](O)CC(=O)O3)[C@H]21 [Simvastatin]
ANGPTL3
  ANGPTL3-LINEAR FOLD CHANGE: 0.2588

## Cc1c(C(=O)Nc2ccc(N3C[C@@H](C)O[C@@H](C)C3)nc2)cccc1-c1ccc(OC(F)(F)F)cc1 [Sonidegib (Erismodegib, NVP-LDE225), Sonidegib]
ANGPTL3
  ANGPTL3-LINEAR FOLD CHANGE: 0.4897

## CC(C)(Sc1cc(C(C)(C)C)c(O)c(C(C)(C)C)c1)Sc1cc(C(C)(C)C)c(OC(=O)CCC(=O)O)c(C(C)(C)C)c1 [Succinobucol]
ANGPTL3
  ANGPTL3-LINEAR FOLD CHANGE: 0.3896

## CC(C)(O)CC(=O)NCCn1ccc2ncnc(Nc3ccc(Oc4cccc(C(F)(F)F)c4)c(Cl)c3)c21 [TAK-285]
ANGPTL3
  ANGPTL3-LINEAR FOLD CHANGE: 0.3842

## CCc1nc(-c2cccc(C)c2)c(-c2ccnc(NC(=O)c3ccccc3)c2)s1 [TAK-715]
ANGPTL3
  ANGPTL3-LINEAR FOLD CHANGE: 0.4538

## CC/C(=C(\c1ccccc1)c1ccc(OCCN(C)C)cc1)c1ccccc1 [Tamoxifen]
ANGPTL3
  ANGPTL3-LINEAR FOLD CHANGE: 0.2606

## NC(=O)c1ccc(N(C(N)=O)c2c(F)cccc2F)nc1-c1ccc(F)cc1F [VX-702]
ANGPTL3
  ANGPTL3-LINEAR FOLD CHANGE: 0.4353

## O=C(CCCCCCC(=O)Nc1ccccc1)NO [Vorinostat (SAHA, MK0683), Vorinostat]
ANGPTL3
  ANGPTL3-LINEAR FOLD CHANGE: 0.3511

## CCn1c(=O)c(-c2cc[nH]n2)cc2c(C)nc(N)nc21 [Voxtalisib (XL765, SAR245409), Voxtalisib]
ANGPTL3
  ANGPTL3-LINEAR FOLD CHANGE: 0.4175

## COCCn1c2c([n+](Cc3cnccn3)c1C)C(=O)c1ccccc1C2=O [YM155 (Sepantronium Bromide), Sepantronium Bromide]
ANGPTL3
  ANGPTL3-LINEAR FOLD CHANGE: 0.3487

## COc1cc(C(=O)NS(=O)(=O)c2ccccc2C)ccc1Cc1cn(C)c2ccc(NC(=O)OC3CCCC3)cc12 [Zafirlukast]
ANGPTL3
  ANGPTL3-LINEAR FOLD CHANGE: 0.4506
